{
  "source": "paper PMC5641330",
  "about": "“Prediction of a Therapeutic Dose for Buagafuran, a Potent Anxiolytic Agent by Physiologically Based Pharmacokinetic/Pharmacodynamic Modeling Starting from Pharmacokinetics in Rats and Human” (Frontiers in Pharmacology, 2017)",
  "key": {"male Wistar rats": {"test_system": "male Wistar rats", "assay": "Elevated plus-maze (EPM) test in the rat, with sigmoid Emax PK/PD fit", "format": "in vivo", "experimental": "Anxiolytic activity of buagafuran was evaluated by EPM model. The rat EPM consisted of two open arms (50 cm × 10 cm) and two closed arms (50 cm × 10 cm × 40 cm) extending from the central platform (10 cm × 10 cm), the maze rising from the floor by 50 cm.\nMale Wistar rats, weighing between 130 and 160 g, were handled daily for 1 week prior to the study and were fasted for 12 h before experiment. Group I: the treated rats received buagafuran formulation of PVP (2, 4, and 8 mg/kg) via the oral route, while the rats that served as control group received vehicle (PVP). Experiments were carried out 10 min after oral administration of drugs or vehicles. Group II: Rats were evaluated 5, 10, 15, 30, 60, 90, 120, and 180 min after oral treatment with buagafuran (4 mg/kg). During a typical test, place each rat on the center of the maze, facing an open arm, and allowing free exploration of the maze for a 5 min test period. An entry was defined by all four paws enter an arm. The total number of arm entries, and the time spent in each type of arm was recorded. The maze was wiped down with 10% ethanol between tests. All experiments were carried out between 9:00 am and 12:00 am.\nThe difference between control and treatment group was statistically analyzed by one-way analyses of variance (ANOVA). Differences with probabilities of less than 5% (p < 0.05) were regarded as significant.\nThe PD Plus module implemented in GastroPlus was used. Based on the parameters (R^2 and Akaike criterion) in PK-PD model simulation, the best-fitting model, Sigmoid Emax model, was employed to fit therapeutic PD response (time spent on the open arms) with the brain concentration profile of buagafuran in rat using the equation 4:\n(4) E = E0+ EmaxC^γ/EC50 γ+C^γ.\nwhere C is in ng/mL, E0 is the time spent by the control group in the open arms which is equal to 0.63, Emax is the maximum response, EC50 is the concentration of a compound at which 50% of its maximum response is observed and γ is the Hill coefficient. The set of parameter values for the model was determined by GastroPlus software. GastroPlus simulation was then used to predict the brain concentration profile and PD response profile of buagafuran in human."}, "[1]": {"assay": "Plasma protein binding by equilibrium dialysis, rat plasma", "format": "in vitro ADME", "details": "0.5–2 μg/mL", "experimental": "The plasma protein binding of buagafuran (0.5–2 μg/mL) was investigated by equilibrium dialysis. Aliquots (0.5 mL) of plasma were dialyzed against 10 mL phosphate buffered saline containing a ^3H-buagafuran tracer over a membrane with an 8,000- to 12,000-dalton molecular weight cutoff. Dialysis experiment was performed for 60 h at 4 °C. After the dialysis period, 100 μL of the PBS fraction (containing unbound buagafuran) and 100 μL of the plasma fraction (containing both bound and unbound drug) was taken for liquid scintillation counting. The ratio of buagafuran concentration in buffer to that in plasma was applied to calculate the unbound fraction (Fu)."}, "Caco-2 transport study": {"assay": "Caco-2 transport study", "format": "in vitro ADME", "parameters": "Caco-2 Papp: unit not given here", "details": "human, Caco-2 monolayer", "experimental": "(§1) Caco-2 Cells from passage 38 were applied to the transport experiments. Cells were seeded on polycarbonate filters (12 mm diameter, pore size 0.4 μm). The cell monolayers were used 21 days post seeding. Buagafuran was dissolved in DMSO. It was further diluted to 50 μM with HBSS. The final buagafuran concentration was 50 μM. For absorptive (AP→BL) permeability test, drug solution (0.4 mL) was added to the apical chamber. For secretive (BL→AP) permeability experiments, drug solution (0.6 mL) was added to the basolateral chamber, then 50 μL samples (n = 3) were withdrawn from receiver chamber at specified times and 50 μL fresh buffer was added in the receiver chamber. The experiments were carried out in triplicate at 4 time points.\n(§2) Transport of buagafuran was tested using a linear model. The regression line was validated by inspection with naked eye and the value of correlation coefficient was R > 0.9. The apparent permeability coefficient (Papp) was calculated by the formula Papp = (ΔQ/Δt)/ACo, where ΔQ/Δt is the transport rate (nmol/s), which remained approximately constant in time, A is the well membrane area (0.6 cm^2), and Co is the initial concentration of buagafuran (μM). The efflux rate (ER) was the ratio of the Papp from the basolateral to apical cells versus the Papp from the apical to basolateral cells. Transport of the tested drug is linear over the incubation times of 30–120 min."}, "Caco-2 cells": {"test_system": "Caco-2 cells", "assay": "Caco-2 transport study", "format": "in vitro ADME", "parameters": "Caco-2 Papp: unit not given here", "details": "PBPK input parameter; 50 μM", "experimental": "as §1, §2"}, "P-gp": {"test_system": "P-gp", "parameters": "method as in Li, 2010", "details": "ref Li, 2010; cited from earlier work"}},
  "data": [
    {"smiles": "CCCCC1=CCC[C@@]2(C)CC[C@@H]3C[C@]12OC3(C)C", "note": "[buagafuran]", "values": [
      {"measurement": "time within which activity decreased", "setting": "male Wistar rats; rat EPM, oral 4 mg/kg", "value": "≤ 2", "unit": "h"},
      {"measurement": "time of maximal level of activity", "setting": "male Wistar rats; rat EPM, oral 4 mg/kg, p < 0.01 versus vehicle", "value": 15, "unit": "min"},
      {"measurement": "onset of action", "setting": "male Wistar rats; rat EPM, oral 4 mg/kg, p < 0.05 versus vehicle", "value": "≤ 10", "unit": "min"},
      {"measurement": "total time spent in open arms", "setting": "male Wistar rats; rat EPM, oral 2, 4 and 8 mg/kg, dose-dependent, inverted U-shaped", "value": "significantly prolonged"},
      {"measurement": "dose of maximum effect", "setting": "male Wistar rats; rat EPM, oral, p < 0.05 versus vehicle", "value": 4, "unit": "mg/kg"},
      {"measurement": "EC50", "setting": "male Wistar rats; time spent in open arms vs rat brain concentration, direct sigmoidal Emax model", "value": 0.0106, "unit": "µg/mL"},
      {"measurement": "concentration dependence of plasma protein binding", "setting": "[1]; rat plasma", "value": "no evident concentration-dependent binding"},
      {"measurement": "fraction unbound at 60 h", "setting": "[1]; rat, plasma, equilibrium dialysis, read-out: Fup rat (unbound fraction in rat plasma)", "value": 0.031},
      {"measurement": "Papp A→B at 50 μM", "setting": "Caco-2 transport study; read-out: apparent permeability coefficient (AP to BL)", "value": 195, "unit": "×10⁻⁶ cm/s"},
      {"measurement": "Papp B→A at 50 μM", "setting": "Caco-2 transport study; read-out: apparent permeability coefficient (BL to AP)", "value": 438, "unit": "×10⁻⁶ cm/s"},
      {"measurement": "Caco-2 Papp", "setting": "Caco-2 cells", "value": "19.5 × 10^-5"},
      {"measurement": "substrate of the transporter P-gp", "setting": "P-gp", "value": "substrate of the transporter P-gp"}
    ]}
  ]
}
